Several values for one entry are separate records, joined by “and”; a condition that tells them apart may be missing. Equal entries are not always repeated. Records with an inconclusive call do not appear.
System: BDF1 mice, colon carcinoma 38 sc, T/C %
Assay: NCI In Vivo Anticancer Drug Screen. Data for tumor model Colon Carcinoma 38 (subcutaneous) in B6D2F1 (BDF1) mice
Details: endpoint: median tumor weight (est.), higher = larger tumour
Summary of the method: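 Transplantable tumor in mice; compound-treated vs vehicle-dosed controls. Measured survival or tumor size; value = T ÷ C.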

[1] = dose: 3.12 mg/kg/injection, schedule: Q07DX002 (ip), vehicle: water
[2] = dose: 6.25 mg/kg/injection, schedule: Q07DX002 (ip), vehicle: water
[3] = dose: 12.5 mg/kg/injection, schedule: Q07DX002 (ip), vehicle: water
[4] = dose: 25.0 mg/kg/injection, schedule: Q07DX002 (ip), vehicle: water
[5] = dose: 50.0 mg/kg/injection, schedule: Q07DX002 (ip), vehicle: water
[6] = dose: 12.5 mg/kg/injection, schedule: Q07DX002 (ip), vehicle: saline
[7] = dose: 12.5 mg/kg/injection, schedule: Q07DX002 (ip), vehicle: suspension in saline
[8] = dose: 25.0 mg/kg/injection, schedule: Q07DX002 (ip), vehicle: suspension in saline
[9] = dose: 50.0 mg/kg/injection, schedule: Q07DX002 (ip), vehicle: saline
[10] = dose: 50.0 mg/kg/injection, schedule: Q07DX002 (ip), vehicle: suspension in saline
[11] = dose: 100.0 mg/kg/injection, schedule: Q07DX002 (ip), vehicle: saline
[12] = dose: 200.0 mg/kg/injection, schedule: Q07DX002 (ip), vehicle: saline
[13] = dose: 50.0 mg/kg/injection, schedule: Q07DX002 (ip), vehicle: saline with Tween-80
[14] = dose: 100.0 mg/kg/injection, schedule: Q07DX002 (ip), vehicle: saline with Tween-80
[15] = dose: 200.0 mg/kg/injection, schedule: Q07DX002 (ip), vehicle: saline with Tween-80
[16] = dose: 100.0 mg/kg/injection, schedule: Q07DX002 (ip), vehicle: Klucel (hydroxypropylcellulose) (HPC)
[17] = dose: 25.0 mg/kg/injection, schedule: Q07DX002 (ip), vehicle: saline with Tween-80
[18] = dose: 25.0 mg/kg/injection, schedule: Q07DX002 (ip), vehicle: Klucel (hydroxypropylcellulose) (HPC)

Cn1cnc([N+](=O)[O-])c1[Se]c1nc(N)nc2nc[nH]c12
T/C [1]: 62 % of control
T/C [2]: 36 % of control
T/C [3]: 87 % of control
T/C [4]: 73 % of control
T/C [5]: 54 % of control
T/C (dose: 100.0 mg/kg/injection, schedule: Q07DX002 (ip), vehicle: water): 57 % of control

COc1cc2cc3cc4cc(OC)c(OC)cc4c(C)[n+]3cc2cc1OC (tested in a mixture with another compound)
T/C [6]: 74 % of control and 94 % of control
T/C [7]: 83 % of control
T/C [8]: 85 % of control
T/C [9]: 81 % of control and 100 % of control
T/C [10]: 98 % of control
T/C [11]: 82 % of control and 88 % of control
T/C (dose: 100.0 mg/kg/injection, schedule: Q07DX002 (ip), vehicle: suspension in saline): 116 % of control
T/C [12]: 74 % of control
T/C (dose: 200.0 mg/kg/injection, schedule: Q07DX002 (ip), vehicle: suspension in saline): 50 % of control
T/C (dose: 400.0 mg/kg/injection, schedule: Q07DX002 (ip), vehicle: suspension in saline): 89 % of control

CS(=O)(=O)Nc1ccc(C(=O)CCN2CCCCCC2)cc1
T/C [13]: 96 % of control
T/C [14]: 86 % of control
T/C [15]: 95 % of control

O=c1ssc(=Nc2ccccc2)n1-c1ccccc1
T/C [16]: 97 % of control and 102 % of control

CC[PH+](CC)CC[S-].CC[PH+](CC)CC[S-].[Au+].[Au+]
T/C (dose: 5.0 mg/kg/injection, schedule: Q07DX002 (ip), vehicle: Klucel (hydroxypropylcellulose) (HPC)): 67 % of control
T/C (dose: 10.0 mg/kg/injection, schedule: Q07DX002 (ip), vehicle: Klucel (hydroxypropylcellulose) (HPC)): 89 % of control
T/C (dose: 20.0 mg/kg/injection, schedule: Q07DX002 (ip), vehicle: Klucel (hydroxypropylcellulose) (HPC)): 78 % of control
T/C (dose: 40.0 mg/kg/injection, schedule: Q07DX002 (ip), vehicle: Klucel (hydroxypropylcellulose) (HPC)): 57 % of control

O=Cc1ccc([N+](=O)[O-])s1
T/C (dose: 6.25 mg/kg/injection, schedule: Q07DX002 (ip), vehicle: saline with Tween-80): 124 % of control and 108 % of control
T/C [17]: 108 % of control
T/C [13]: 57 % of control

CC(C)CCCCCCCCCCCCC(=O)NCC(=O)NC1C(C)OC(Nc2ncnc3nc[nH]c23)C(O)C1O (stereo not given)
T/C (dose: 0.5 mg/kg/injection, schedule: Q07DX002 (ip), vehicle: distilled water + Tween-80): 105 % of control

Cc1cc2c(=O)cc(-c3ccccc3Cl)oc2c(C(=O)O)c1C
T/C (dose: 100.0 mg/kg/injection, schedule: Q07DX002 (ip), vehicle: sodium bicarbonate): 56 % of control
T/C (dose: 200.0 mg/kg/injection, schedule: Q07DX002 (ip), vehicle: sodium bicarbonate): 35 % of control
T/C (dose: 400.0 mg/kg/injection, schedule: Q07DX002 (ip), vehicle: sodium bicarbonate): 40 % of control

CCOC(=O)CNC(=O)CCCCSc1ncnc2nc[nH]c12
T/C (dose: 200.0 mg/kg/injection, schedule: Q07DX003 (ip), vehicle: saline with Tween-80): 74 % of control
T/C (dose: 400.0 mg/kg/injection, schedule: Q07DX003 (ip), vehicle: saline with Tween-80): 104 % of control
T/C (dose: 800.0 mg/kg/injection, schedule: Q07DX003 (ip), vehicle: saline with Tween-80): 79 % of control
T/C (dose: 1600.0 mg/kg/injection, schedule: Q07DX003 (ip), vehicle: saline with Tween-80): 82 % of control

O=Cc1ccccc1
T/C [18]: 77 % of control
T/C [17]: 69 % of control
T/C (dose: 50.0 mg/kg/injection, schedule: Q07DX002 (ip), vehicle: Klucel (hydroxypropylcellulose) (HPC)): 83 % of control
T/C [13]: 77 % of control
T/C [16]: 98 % of control
T/C [14]: 108 % of control
T/C (dose: 200.0 mg/kg/injection, schedule: Q07DX002 (ip), vehicle: Klucel (hydroxypropylcellulose) (HPC)): 60 % of control
T/C [15]: 112 % of control
T/C (dose: 400.0 mg/kg/injection, schedule: Q07DX002 (ip), vehicle: Klucel (hydroxypropylcellulose) (HPC)): 97 % of control

CN(C)C(=O)c1cccc(COc2ccc(N3C(N)=NC(N)=NC3(C)C)cc2Cl)c1
T/C (dose: 32.0 mg/kg/injection, schedule: Q07DX003 (ip), vehicle: saline): 87 % of control and 98 % of control
T/C (dose: 64.0 mg/kg/injection, schedule: Q07DX003 (ip), vehicle: saline): 50 % of control
T/C (dose: 128.0 mg/kg/injection, schedule: Q07DX003 (ip), vehicle: saline): 66 % of control
T/C (dose: 256.0 mg/kg/injection, schedule: Q07DX003 (ip), vehicle: saline): 59 % of control

O=C(C#Cc1ccccc1)c1ccccc1
T/C (dose: 3.12 mg/kg/injection, schedule: Q07DX002 (ip), vehicle: Klucel (hydroxypropylcellulose) (HPC)): 73 % of control
T/C [1]: 106 % of control
T/C [2]: 77 % of control
T/C (dose: 12.5 mg/kg/injection, schedule: Q07DX002 (ip), vehicle: Klucel (hydroxypropylcellulose) (HPC)): 83 % of control
T/C [3]: 110 % of control
T/C [18]: 101 % of control
T/C [4]: 117 % of control
T/C [5]: 54 % of control

CS(C)=O
T/C (dose: 1.5 grams/kg/injection, schedule: Q07DX003 (ip), vehicle: saline): 86 % of control
T/C (dose: 6.0 grams/kg/injection, schedule: Q07DX003 (ip), vehicle: saline): 83 % of control and 103 % of control
T/C (dose: 12.0 grams/kg/injection, schedule: Q07DX003 (ip), vehicle: saline): 171 % of control

COc1ccc2c(c1)CCn1c(C)c(COC(=O)NC(C)C)c(COC(=O)NC(C)C)c1-2
T/C (dose: 6.25 mg/kg/injection, schedule: Q07DX002 (ip), vehicle: distilled water + Tween-80): 76 % of control
T/C (dose: 12.5 mg/kg/injection, schedule: Q07DX002 (ip), vehicle: distilled water + Tween-80): 102 % of control
T/C (dose: 25.0 mg/kg/injection, schedule: Q07DX002 (ip), vehicle: distilled water + Tween-80): 97 % of control
T/C (dose: 50.0 mg/kg/injection, schedule: Q07DX002 (ip), vehicle: distilled water + Tween-80): 65 % of control
T/C (dose: 100.0 mg/kg/injection, schedule: Q07DX002 (ip), vehicle: distilled water + Tween-80): 48 % of control

O=C(Nc1ccccc1C(=O)O)c1cc([N+](=O)[O-])cc([N+](=O)[O-])c1
T/C [17]: 110 % of control and 88 % of control
T/C [13]: 78 % of control and 85 % of control
T/C [14]: 69 % of control
T/C [15]: 83 % of control and 86 % of control

CCN(CC)CCC(=O)c1ccccc1
T/C (dose: 6.25 mg/kg/injection, schedule: Q07DX002 (ip), vehicle: saline): 85 % of control
T/C [6]: 118 % of control and 108 % of control
T/C [7]: 122 % of control
T/C [8]: 80 % of control
T/C [10]: 85 % of control
T/C [11]: 108 % of control

CCC(C(=O)O)C(=O)O.[NH2-].[NH2-].[Pt+2]
T/C [9]: 46 % of control
T/C [11]: 19 % of control
T/C [12]: 2 % of control

O=C1N[C@@H]([C@H]2CC[C@H](Cl)CN2)C(=O)N[C@H]1[C@H]1CC[C@H](Cl)CN1
T/C (dose: 0.31 mg/kg/injection, schedule: Q07DX003 (ip), vehicle: water): 85 % of control
T/C (dose: 0.63 mg/kg/injection, schedule: Q07DX003 (ip), vehicle: water): 110 % of control
T/C (dose: 1.25 mg/kg/injection, schedule: Q07DX003 (ip), vehicle: water): 79 % of control
T/C (dose: 2.5 mg/kg/injection, schedule: Q07DX003 (ip), vehicle: water): 70 % of control
T/C (dose: 5.0 mg/kg/injection, schedule: Q07DX003 (ip), vehicle: water): 6 % of control

C=C/C(C)=C/[C@H](C)C(=O)C[C@H](O)CC1CC(=O)NC(=O)C1
T/C (dose: 12.5 mg/kg/injection, schedule: Q07DX002 (ip), vehicle: saline with Tween-80): 111 % of control
T/C [17]: 102 % of control
T/C [13]: 89 % of control
T/C [14]: 102 % of control

N=C(N)CCNC(=O)C1CCC(N)=N1 (stereo not given)
T/C (dose: 3.38 mg/kg/injection, schedule: Q07DX002 (ip), vehicle: saline): 97 % of control
T/C (dose: 6.75 mg/kg/injection, schedule: Q07DX002 (ip), vehicle: saline): 115 % of control
T/C (dose: 13.5 mg/kg/injection, schedule: Q07DX002 (ip), vehicle: saline): 120 % of control
T/C (dose: 27.0 mg/kg/injection, schedule: Q07DX002 (ip), vehicle: saline): 91 % of control

Source: PubChem BioAssay AID212 (DTP/NCI, 2004)
